Reference: ChEMBL document CHEMBL1137358, “Synthetic inhibitors of cytochrome P-450 2A6: inhibitory activity, difference spectra, mechanism of inhibition, and protein cocrystallization” (J Med Chem, 2006)

Key:
CYP2A6 over CYP2C19 = assay: Selectivity for CYP2A6 over CYP2C19; settings: human
CYP2A6 over CYP3A4 = assay: Selectivity for CYP2A6 over CYP3A4; settings: human
Cytochrome P450 2B6 = molecular target: T1, Cytochrome P450 2B6 (Homo sapiens, UniProt P20813); assay: Inhibition of human CYP2B6
T1 sequence (P20813 whole entry): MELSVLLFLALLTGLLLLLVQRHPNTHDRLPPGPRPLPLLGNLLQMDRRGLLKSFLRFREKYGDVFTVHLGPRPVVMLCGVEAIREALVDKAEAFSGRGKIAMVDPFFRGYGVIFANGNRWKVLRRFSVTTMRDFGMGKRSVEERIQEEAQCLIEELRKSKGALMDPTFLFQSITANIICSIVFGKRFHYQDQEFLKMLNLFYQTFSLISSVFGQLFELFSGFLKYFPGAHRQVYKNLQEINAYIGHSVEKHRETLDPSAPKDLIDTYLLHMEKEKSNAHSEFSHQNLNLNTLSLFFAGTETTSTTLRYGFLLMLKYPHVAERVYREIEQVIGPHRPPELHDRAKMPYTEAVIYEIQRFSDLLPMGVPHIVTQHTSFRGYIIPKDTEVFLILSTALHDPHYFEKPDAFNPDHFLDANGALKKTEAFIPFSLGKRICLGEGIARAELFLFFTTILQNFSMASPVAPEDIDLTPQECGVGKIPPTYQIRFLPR

Cytochrome P450 3A4 = Cytochrome P450 3A4 (Homo sapiens, UniProt P08684); assay: Inhibition of human CYP3A4
Cytochrome P450 2D6 = Cytochrome P450 2D6 (Homo sapiens, UniProt P10635); assay: Inhibition of human CYP2D6
[1] = Stability in human liver microsome
CYP2A6 over CYP2E1 = assay: Selectivity for CYP2A6 over CYP2E1; settings: human
CYP2A6 over CYP2C9 = assay: Selectivity for CYP2A6 over CYP2C9; settings: human
Cytochrome P450 2C9 = Cytochrome P450 2C9 (Homo sapiens, UniProt P11712); assay: Inhibition of human CYP2C9
Cytochrome P450 2C19 = Cytochrome P450 2C19 (Homo sapiens, UniProt P33261); assay: Inhibition of human CYP2C19
Cytochrome P450 2A6 = molecular target: T2, Cytochrome P450 2A6 (Homo sapiens, UniProt P11509); assay: Inhibition of human CYP2A6
T2 sequence (P11509 whole entry): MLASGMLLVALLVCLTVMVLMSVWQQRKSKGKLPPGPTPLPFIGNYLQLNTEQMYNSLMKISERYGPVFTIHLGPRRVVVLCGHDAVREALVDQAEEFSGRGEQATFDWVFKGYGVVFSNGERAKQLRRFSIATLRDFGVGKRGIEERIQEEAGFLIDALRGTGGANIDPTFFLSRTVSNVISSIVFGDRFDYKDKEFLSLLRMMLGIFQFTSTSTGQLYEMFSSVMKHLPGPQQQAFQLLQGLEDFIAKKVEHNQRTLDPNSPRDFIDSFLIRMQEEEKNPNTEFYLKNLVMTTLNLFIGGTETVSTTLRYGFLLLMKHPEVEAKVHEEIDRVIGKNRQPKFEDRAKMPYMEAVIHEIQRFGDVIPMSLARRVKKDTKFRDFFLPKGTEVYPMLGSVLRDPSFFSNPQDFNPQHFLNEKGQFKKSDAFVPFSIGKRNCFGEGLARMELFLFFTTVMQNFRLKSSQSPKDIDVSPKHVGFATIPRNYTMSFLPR

CYP2A6 over CYP2D6 = assay: Selectivity for CYP2A6 over CYP2D6; settings: human
CYP2A6 over CYP2B6 = assay: Selectivity for CYP2A6 over CYP2B6
Cytochrome P450 2E1 = Cytochrome P450 2E1 (Homo sapiens, UniProt P05181); assay: Inhibition of human CYP2E1
[2] = Stability in mouse liver microsome

Cytochrome P450 3A4, sequence (P08684 whole entry): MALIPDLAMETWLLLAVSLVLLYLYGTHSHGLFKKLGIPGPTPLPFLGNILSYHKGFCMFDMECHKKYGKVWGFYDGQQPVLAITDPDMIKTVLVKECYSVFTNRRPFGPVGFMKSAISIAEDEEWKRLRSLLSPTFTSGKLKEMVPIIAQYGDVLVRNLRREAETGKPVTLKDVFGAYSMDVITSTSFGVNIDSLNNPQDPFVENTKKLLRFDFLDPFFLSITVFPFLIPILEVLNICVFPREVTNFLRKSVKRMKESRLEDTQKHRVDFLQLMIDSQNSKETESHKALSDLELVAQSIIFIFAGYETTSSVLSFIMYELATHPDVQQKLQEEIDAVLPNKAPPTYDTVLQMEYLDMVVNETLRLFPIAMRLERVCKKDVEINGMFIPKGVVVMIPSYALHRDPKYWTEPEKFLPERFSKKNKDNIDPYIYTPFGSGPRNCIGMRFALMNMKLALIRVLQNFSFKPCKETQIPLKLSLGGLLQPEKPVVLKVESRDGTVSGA
Cytochrome P450 2E1, sequence (P05181 whole entry): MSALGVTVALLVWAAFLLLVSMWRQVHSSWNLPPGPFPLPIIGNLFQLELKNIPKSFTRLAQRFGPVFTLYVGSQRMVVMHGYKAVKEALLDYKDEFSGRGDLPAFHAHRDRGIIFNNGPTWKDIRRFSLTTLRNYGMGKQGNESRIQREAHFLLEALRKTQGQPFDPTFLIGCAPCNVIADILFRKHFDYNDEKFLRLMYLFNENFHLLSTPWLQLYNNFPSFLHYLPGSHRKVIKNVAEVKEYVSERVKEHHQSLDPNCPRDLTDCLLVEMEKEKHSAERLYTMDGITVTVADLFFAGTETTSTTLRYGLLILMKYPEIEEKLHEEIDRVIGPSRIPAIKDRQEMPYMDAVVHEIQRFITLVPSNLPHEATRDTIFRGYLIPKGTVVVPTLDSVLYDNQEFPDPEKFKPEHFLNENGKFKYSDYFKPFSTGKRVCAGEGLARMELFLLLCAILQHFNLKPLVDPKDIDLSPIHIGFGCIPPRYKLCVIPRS
Cytochrome P450 2D6, sequence (P10635 whole entry): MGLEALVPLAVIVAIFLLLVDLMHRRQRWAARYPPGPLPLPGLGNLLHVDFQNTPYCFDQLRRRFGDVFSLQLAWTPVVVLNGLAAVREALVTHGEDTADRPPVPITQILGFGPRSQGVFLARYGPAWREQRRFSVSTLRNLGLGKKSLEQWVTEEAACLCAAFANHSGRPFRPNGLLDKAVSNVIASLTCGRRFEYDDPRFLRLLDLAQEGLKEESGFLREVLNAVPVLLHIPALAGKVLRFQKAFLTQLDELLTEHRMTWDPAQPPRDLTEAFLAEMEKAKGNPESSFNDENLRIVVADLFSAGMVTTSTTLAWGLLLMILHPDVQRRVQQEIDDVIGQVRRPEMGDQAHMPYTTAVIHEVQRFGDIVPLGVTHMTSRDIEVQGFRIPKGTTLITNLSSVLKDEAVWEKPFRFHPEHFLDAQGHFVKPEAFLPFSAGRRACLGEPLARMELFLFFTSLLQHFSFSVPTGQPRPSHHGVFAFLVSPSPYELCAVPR
Cytochrome P450 2C19, sequence (P33261 whole entry): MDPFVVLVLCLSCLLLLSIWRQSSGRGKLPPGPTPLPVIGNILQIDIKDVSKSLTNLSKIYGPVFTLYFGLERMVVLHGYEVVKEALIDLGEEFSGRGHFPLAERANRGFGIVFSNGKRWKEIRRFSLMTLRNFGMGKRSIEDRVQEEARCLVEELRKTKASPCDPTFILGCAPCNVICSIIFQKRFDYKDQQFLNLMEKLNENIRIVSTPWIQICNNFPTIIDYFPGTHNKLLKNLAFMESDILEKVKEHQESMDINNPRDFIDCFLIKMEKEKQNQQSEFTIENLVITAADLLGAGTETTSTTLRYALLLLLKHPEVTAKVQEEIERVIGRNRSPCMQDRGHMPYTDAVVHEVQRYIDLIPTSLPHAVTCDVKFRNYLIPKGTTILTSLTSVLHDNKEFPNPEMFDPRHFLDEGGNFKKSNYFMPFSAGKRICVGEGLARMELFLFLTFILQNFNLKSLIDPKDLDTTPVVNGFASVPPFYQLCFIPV
Cytochrome P450 2C9, sequence (P11712 whole entry): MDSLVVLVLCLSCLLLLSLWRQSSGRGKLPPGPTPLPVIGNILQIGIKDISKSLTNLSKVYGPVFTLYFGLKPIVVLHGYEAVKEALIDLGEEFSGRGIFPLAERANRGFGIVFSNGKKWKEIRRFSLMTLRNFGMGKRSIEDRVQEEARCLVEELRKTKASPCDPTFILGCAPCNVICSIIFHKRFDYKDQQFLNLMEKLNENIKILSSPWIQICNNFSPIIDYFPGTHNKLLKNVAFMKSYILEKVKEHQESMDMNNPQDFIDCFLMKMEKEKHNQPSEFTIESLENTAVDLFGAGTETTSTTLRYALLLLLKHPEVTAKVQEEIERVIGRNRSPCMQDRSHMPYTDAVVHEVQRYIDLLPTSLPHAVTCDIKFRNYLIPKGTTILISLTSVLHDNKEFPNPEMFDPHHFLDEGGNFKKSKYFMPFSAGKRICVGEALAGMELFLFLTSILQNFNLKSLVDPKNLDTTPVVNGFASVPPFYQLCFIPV

Compound | Ki (Cytochrome P450 2B6) | Ki (Cytochrome P450 3A4) | Ki (Cytochrome P450 2D6) | Ki (Cytochrome P450 2C9) | Ki (Cytochrome P450 2C19) | Ki (Cytochrome P450 2A6) | Ki (Cytochrome P450 2E1) | half-life ([1]; microsomes) | half-life ([2]; microsomes) | selectivity ratio (CYP2A6 over CYP2C19) | selectivity ratio (CYP2A6 over CYP3A4) | half-life ([1]; liver microsomes) | selectivity ratio (CYP2A6 over CYP2E1) | selectivity ratio (CYP2A6 over CYP2C9) | selectivity ratio (CYP2A6 over CYP2D6) | selectivity ratio (CYP2A6 over CYP2B6) | half-life ([2]; liver microsomes)
Cc1csc(-c2cccnc2)n1 | 43.5 µM | 22.9 µM | > 400 µM | 51.5 µM | > 400 µM | 4100 nM | 9.6 µM | 36 min | 49 min | > 32.3 | 5.6 |  | 2.3 | 12.6 | > 32.3 | 10.6 | 
CNCC#Cc1cccnc1 | 60 µM | 251 µM | > 400 µM | 6.3 µM | 16.4 µM | 2700 nM | 117 µM |  |  | 6.1 | 92.8 | 136 min | 43.1 | 2.3 | > 74 | 22.2 | 123 min
Cc1ccsc1-c1cccnc1 |  |  |  |  |  |  |  |  |  |  |  | 32 min |  |  |  |  | 41 min
c1cncc(-c2c[nH]cn2)c1 | 51.5 µM | 70 µM | 100 µM | 20.9 µM | 26.8 µM | 800 nM | 12.8 µM |  |  | 35 | 93 | 701 min | 17 | 28 | 133 | 69 | 698 min
NCc1ccc(-c2cccnc2)o1 | 95.5 µM | 23.6 µM | 5.7 µM | 5.9 µM | 11 µM |  | 86 µM |  |  | 81 |  | 37 min |  | 43 | 42 |  | 37 min

The next lines start with results.

Ki (Cytochrome P450 2B6) | Ki (Cytochrome P450 3A4) | Ki (Cytochrome P450 2D6) | Ki (Cytochrome P450 2C9) | Ki (Cytochrome P450 2C19) | Ki (Cytochrome P450 2A6) | Ki (Cytochrome P450 2E1) | half-life ([1]; microsomes) | half-life ([2]; microsomes) | Compound | selectivity ratio (CYP2A6 over CYP2C19) | selectivity ratio (CYP2A6 over CYP3A4) | half-life ([1]; liver microsomes) | selectivity ratio (CYP2A6 over CYP2E1) | selectivity ratio (CYP2A6 over CYP2C9) | selectivity ratio (CYP2A6 over CYP2D6) | selectivity ratio (CYP2A6 over CYP2B6) | half-life ([2]; liver microsomes)
33.7 µM | > 400 µM | > 400 µM | 14.5 µM | 27.5 µM | 400 nM | 38.9 µM |  |  | NCc1cc(-c2cccnc2)no1 | 74.3 | > 541 | 401 min | 105 | 39.1 | > 541 | 91.1 | 385 min
5.1 µM | > 400 µM | > 400 µM | > 400 µM | > 400 µM | 6200 nM | > 400 µM | 74 min | 37 min | Cc1cscc1-c1ccccc1 | 32.3 | > 400 |  | 2.9 | 33.9 | 60.6 | 4.2 | 
14 µM | > 400 µM | > 400 µM | 112 µM | 107 µM | 3300 nM | 9.7 µM |  |  | c1ccc(-c2ccsc2)cc1 | > 32.3 | > 32.3 | 315 min | > 32.3 | > 32.3 | > 32.3 | 0.8 | 92 min
46.9 µM | 7.4 µM | 64.5 µM | 14.1 µM | 7 µM | 800 nM | 0.8 µM | 59 min | 38 min | CSCc1ccc(-c2cccnc2)o1 | 8.8 | 9.2 |  | 0.9 | 18 | 81 | 59 | 
0.6 µM | 95.5 µM | > 400 µM | 0.5 µM | 0.9 µM | 600 nM | 0.04 µM | 84 min | 41 min | NCc1ccc(-c2ccccc2)s1 | 1.4 | 159 |  | 0.1 | 0.8 | > 333 | 1.1 | 
 | 29.4 µM | 84.5 µM |  |  |  | 20.1 µM | 39 min | 60 min | NCc1ccc(-c2cccnc2)s1 |  |  |  |  |  |  |  | 
